Results taken from the NIST ThermoML archive (doi:10.1016/j.jct.2017.01.016).

Test: xn = mol fraction of the nth substance listed
Details: 101 kPa, Liquid; for viscosity: Capillary tube (Ostwald / Ubbelohde) method; for speed of sound: Frequency=3 MHz, Linear variable-path acoustic interferometer

Cc1cccc(C)c1 [1,3-dimethylbenzene] + C1COCCO1
Details | speed of sound [m/s] | viscosity [mPa·s]
293.15 K, x2 = 0 | 1346.7 | 0.6184
293.15 K, x2 = 0.0938 | 1341.2 | 0.674
293.15 K, x2 = 0.1532 | 1338.2 | 0.7104
293.15 K, x2 = 0.2046 | 1335.9 | 0.7427
293.15 K, x2 = 0.2698 | 1333.4 | 0.7843
293.15 K, x2 = 0.3374 | 1331.4 | 0.8284
293.15 K, x2 = 0.4002 | 1330.1 | 0.8702
293.15 K, x2 = 0.4714 | 1329.3 | 0.9186
293.15 K, x2 = 0.5487 | 1329.6 | 0.9721
293.15 K, x2 = 0.63 | 1331.2 | 1.03
293.15 K, x2 = 0.7182 | 1335 | 1.093
293.15 K, x2 = 0.8035 | 1341 | 1.156
293.15 K, x2 = 0.8708 | 1347.8 | 1.207
293.15 K, x2 = 0.9324 | 1355.8 | 1.254
298.15 K, x2 = 0 | 1323.6 | 0.584
298.15 K, x2 = 0.0938 | 1318.3 | 0.633
298.15 K, x2 = 0.1532 | 1315.4 | 0.6651
298.15 K, x2 = 0.2046 | 1313.2 | 0.6934
298.15 K, x2 = 0.2698 | 1310.8 | 0.7303
298.15 K, x2 = 0.3374 | 1308.8 | 0.7694
298.15 K, x2 = 0.4002 | 1307.6 | 0.8064
298.15 K, x2 = 0.4714 | 1307 | 0.8493
298.15 K, x2 = 0.5487 | 1307.3 | 0.8968
298.15 K, x2 = 0.63 | 1309.1 | 0.948
298.15 K, x2 = 0.7182 | 1312.9 | 1.005
298.15 K, x2 = 0.8035 | 1318.8 | 1.061
298.15 K, x2 = 0.8708 | 1325.5 | 1.106
298.15 K, x2 = 0.9324 | 1333.5 | 1.148
303.15 K, x2 = 0 | 1302.4 | 0.5517
303.15 K, x2 = 0.0938 | 1297.2 | 0.5953
303.15 K, x2 = 0.1532 | 1294.4 | 0.6236
303.15 K, x2 = 0.2046 | 1292.2 | 0.6487
303.15 K, x2 = 0.2698 | 1289.8 | 0.6811
303.15 K, x2 = 0.3374 | 1287.9 | 0.7159
303.15 K, x2 = 0.4002 | 1286.6 | 0.7488
303.15 K, x2 = 0.4714 | 1286 | 0.787
303.15 K, x2 = 0.5487 | 1286.3 | 0.8293
303.15 K, x2 = 0.63 | 1288.1 | 0.875
303.15 K, x2 = 0.7182 | 1291.9 | 0.9258
303.15 K, x2 = 0.8035 | 1297.7 | 0.976
303.15 K, x2 = 0.8708 | 1304.4 | 1.016
303.15 K, x2 = 0.9324 | 1312.2 | 1.054
308.15 K, x2 = 0 | 1282.3 | 0.5229
308.15 K, x2 = 0.0938 | 1277.1 | 0.5621
308.15 K, x2 = 0.1532 | 1274.3 | 0.5875
308.15 K, x2 = 0.2046 | 1272.1 | 0.6101
308.15 K, x2 = 0.2698 | 1269.7 | 0.6392
308.15 K, x2 = 0.3374 | 1267.8 | 0.6706
308.15 K, x2 = 0.4002 | 1266.5 | 0.7002
308.15 K, x2 = 0.4714 | 1265.8 | 0.7347
308.15 K, x2 = 0.5487 | 1266 | 0.773
308.15 K, x2 = 0.63 | 1267.7 | 0.8144
308.15 K, x2 = 0.7182 | 1271.2 | 0.8604
308.15 K, x2 = 0.8035 | 1276.9 | 0.9061
308.15 K, x2 = 0.8708 | 1283.2 | 0.943
308.15 K, x2 = 0.9324 | 1290.7 | 0.9769
313.15 K, x2 = 0 | 1262.3 | 0.4938
313.15 K, x2 = 0.0938 | 1257.2 | 0.5297
313.15 K, x2 = 0.1532 | 1254.3 | 0.553
313.15 K, x2 = 0.2046 | 1252.2 | 0.5737
313.15 K, x2 = 0.2698 | 1249.8 | 0.6005
313.15 K, x2 = 0.3374 | 1247.9 | 0.6291
313.15 K, x2 = 0.4002 | 1246.6 | 0.6563
313.15 K, x2 = 0.4714 | 1245.8 | 0.688
313.15 K, x2 = 0.5487 | 1246 | 0.7231
313.15 K, x2 = 0.63 | 1247.5 | 0.7611
313.15 K, x2 = 0.7182 | 1250.9 | 0.8034
313.15 K, x2 = 0.8035 | 1256.4 | 0.8453
313.15 K, x2 = 0.8708 | 1262.4 | 0.8793
313.15 K, x2 = 0.9324 | 1269.6 | 0.9105
318.15 K, x2 = 0 | 1243 | 0.468
318.15 K, x2 = 0.0938 | 1237.9 | 0.501
318.15 K, x2 = 0.1532 | 1235.1 | 0.5226
318.15 K, x2 = 0.2046 | 1232.9 | 0.5416
318.15 K, x2 = 0.2698 | 1230.5 | 0.5665
318.15 K, x2 = 0.3374 | 1228.5 | 0.5928
318.15 K, x2 = 0.4002 | 1227.2 | 0.6178
318.15 K, x2 = 0.4714 | 1226.4 | 0.647
318.15 K, x2 = 0.5487 | 1226.5 | 0.6794
318.15 K, x2 = 0.63 | 1227.9 | 0.7144
318.15 K, x2 = 0.7182 | 1231.1 | 0.7535
318.15 K, x2 = 0.8035 | 1236.2 | 0.7922
318.15 K, x2 = 0.8708 | 1242 | 0.8232
318.15 K, x2 = 0.9324 | 1248.9 | 0.852
